Structures can show the parent of a compound that is named as a salt. Where two headings read alike, the source gives them in different places. Bounds are passed on as bounds.

11 compounds from patent publication EP0172632B1, “Benzopyrano[4,3,2-cd]indazole compounds, processes for their production and pharmaceutical compositions comprising the compounds” (WARNER-LAMBERT COMPANY, priority 1984, dated 1986) can be followed below.

In experiment [1] the test system is L1210 cells. Kind of experiment: L1210 in vitro cell growth inhibition. The format is cell-based. The settings on record: Mus musculus, 72 h; L1210 murine leukemia cells, three days incubation, 50% inhibition of growth; read-out: L1210 in vitro ID50. The protocol:
Another test protocol uses L1210 cells, a murine leukemia cell line, grown in RPMI 1640 supplemented with 5% fetal bovine serum and gentamicin ([…]). Drug dilutions are prepared in the appropriate solvent and 20 µl of each dilution are added to 24-well Linbro tissue culture plates, followed by the addition of 2.0 ml of cell suspension containing 3 x 10^4 cells per ml. Solvent and medium controls are included in each test. After incubation at 37°C for three days in 5% CO2, the contents of each well are removed and the cells counted in a ZBI Counter counter. Percent growth are calculated relative to the controls and the levels of drug activity are expressed as ID50 in moles per liter.

Experiment [2] relates to Rhodotorula aurantiaca. The experiment in a line: in vitro antibacterial (ABMF) microdilution susceptibility test. The format is cell-based. Conditions: Buckleyzyma aurantiaca; Mueller-Hinton broth microdilution, 37°C, 16-24 hours; read-out: ABMF Minimal Inhibitory Concentration (µ/ml) R. aurant. The source says: (§1) Still another test protocol is the in vitro antibacterial (ABMF) test which is a recognized standard microdilution susceptibility procedure in Mueller-Hinton broth against Gram-positive and Gram-negative bacterial test organisms. The procedure is a modification of a state-of-the-art procedure reported in Manual of Clinical Microbiology, Lennette, E. H., ed., by Barry, A. L. and C. Thornsberry at pages 463-474 and by Gavan, T. L. and A. L. Barry at pages 459―462, American Society for Microbiology, Washington, 1980.
(§2) In the test, a given bacterial culture is used to inoculate individual test wells of microdilution trays containing growth medium and test compound, the latter in a microdilution series: 1000, 333.111, 37,12, 4, 1.4, and 0.46 micrograms per milliliter. […] For convenience, values are reported for Escherichia coli, Corynebacterium Sp. ATCC 21698, Salmonella typhimurium, Streptococcus pneumoniae, and Rhodotorula aurantiaca.
(Broth dilution looks for growth in wells or tubes with falling amounts of substance.)

Experiment [3] deals with Salmonella typhimurium. Described as above. The format is cell-based. Conditions: Salmonella enterica, Mueller-Hinton broth microdilution, 37°C, 16-24 hours, read-out: ABMF Minimal Inhibitory Concentration (µ/ml) S. typh.
From the text: as §1, §2

Experiment [4] relates to Corynebacterium Sp. ATCC 21698. The experiment is described as above. Conditions: ATCC21698, Mueller-Hinton broth microdilution, 37°C, 16-24 hours, read-out: ABMF Minimal Inhibitory Concentration (µ/ml) Coryn. sp. Type of experiment: cell-based.
From the text: as §1, §2

The test system of experiment [5] is Streptococcus pneumoniae. Described as above. The format is cell-based. The settings on record: Mueller-Hinton broth microdilution, 37°C, 16-24 hours, read-out: ABMF Minimal Inhibitory Concentration (µ/ml) S. pneum.
From the text: as §1, §2

For experiment [6], the system named is Escherichia coli. The description is as above. The format is cell-based. Conditions: read-out: ABMF Minimal Inhibitory Concentration (µ/ml) E. coli.
From the text: as §1, §2

Experiment [7] concerns lymphocytic leukemia P388. Kind of experiment: in vivo lymphocytic leukemia P388 test. The settings on record: Mus musculus, P388, ip, 120 h, mice, survival time treated/control, read-out: P388 in vivo T/C×100; for response vs control in vivo at 6.25 mg/kg: Dose 6.25 mg/kg intraperitoneally once daily for five days; for response vs control in vivo at 12.5 mg/kg: Dose 12.5 mg/kg intraperitoneally once daily for five days; for response vs control in vivo at 25 mg/kg: Dose 25 mg/kg intraperitoneally once daily for five days. The method, then: Another test protocol is the in vivo lymphocytic leukemia P388 test. The animals used are either male or female CD2F, mice. There are six or seven animals per test group. The tumor transplant is by intraperitoneal injection of dilute ascitic fluid containing cells of lymphocytic leukemia P388. The test compounds are administered intraperitoneally once daily for five consecutive days at various doses following tumor inoculation. The animals are weighed and survivors are recorded on a regular basis for 30 days. A compound is designated "toxic" if, at a given dose, all animals died prior to four days after the first injection of drug. A ratio of survival time for treated (T)/control (C) animals is calculated. A criterion for efficacy is a ratio T/C times 100 greater than or equal to 125. See Cancer Chemotherapy Reports, Part 3, 3, 1 (1972) for a comprehensive discussion of the protocol.

The mark [8] stands for this setting: Mueller-Hinton broth microdilution, 37°C, 16-24 hours.

Consider `COc1ccc2c(c1)-c1nn(CCN3CCCC3)c3ccc([N+](=O)[O-])c(c13)O2.Cl` [Example 8, 9-Methoxy-5-nitro-2-[2-(1-pyrrolidinyl)ethyl]-2H-[1]benzopyrano[4,3,2-cd]indazole, monohydrochloride], for which the IC50 in experiment [1] turned out to be 2 µM. Also, the MIC was 111 mg/L in experiment [2]; 37 mg/L in experiment [3]; less than 0.46 mg/L in experiment [4]; less than 0.46 mg/L in experiment [5]; more than 1000 mg/L in experiment [6] (setting [8]).

Regarding `CCN(CC)CCn1nc2c3c(c([N+](=O)[O-])ccc31)Oc1cc(O)ccc1-2` [Example 20, 5-Nitro-2-[2-(diethylamino)ethyl]-2H-[1]benzopyrano[4,3,2-cd]indazol-8-0l, hydrochloride], the IC50 in experiment [1] was found to be 0.87 µM. Moreover, the MIC in experiment [2] was more than 1000 mg/L; in experiment [3], 12.3 mg/L; in experiment [4], less than 0.46 mg/L; in experiment [5], less than 0.46 mg/L; in experiment [6] (setting [8]) it was 1.4 mg/L.

Regarding `COc1ccc2c(c1)-c1nn(CCN3CCCC3)c3ccc(N)c(c13)O2` [Example 9, 9-Methoxy-2-[2-(1-pyrrolidinyl)ethyl]-2H-[1]benzopyrano[4,3,2-cd]indazole-2-amine, monohydrochloride], in experiment [1], the IC50 turned out to be 0.36 µM. In addition, the MIC in experiment [2] amounted to 333 mg/L; in experiment [3] it was 111 mg/L; in experiment [4], 4.1 mg/L; in experiment [5], 4.1 mg/L; in experiment [6] (setting [8]), 12.3 mg/L.

On to `COc1ccc2c(c1)-c1nn(CCCN(C)C)c3ccc([N+](=O)[O-])c(c13)O2` [Example 7, 9-Methoxy-N,N-dimethyl-5-nitro-2H-[1]benzopyrano[4,3,2-cd]indazole-2-propanamine, methanesulfonate (1:1.17)], for which the IC50 in experiment [1] worked out at 0.58 µM. In addition, in experiment [7] (Dose 50 mg/kg intraperitoneally once daily for five days), the response vs control in vivo at 50 mg/kg was found to be 134%. Moreover, in experiment [7] (Dose 100 mg/kg intraperitoneally once daily for five days), the response vs control in vivo at 100 mg/kg turned out to be 159%. Moreover, in experiment [7] (Dose 200 mg/kg intraperitoneally once daily for five days), the response vs control in vivo at 200 mg/kg worked out at 218%. The MIC in experiment [2] is 1000 mg/L; in experiment [3], 111 mg/L; in experiment [4], less than 0.46 mg/L; in experiment [5] it was less than 0.46 mg/L; in experiment [6] (setting [8]) it was 4.1 mg/L.

On to `O=C(CNCCO)Nc1ccc2c3c(nn2CCNCCO)-c2cc(O)ccc2Oc13` [Example 17, 2-[2-[(2-Hydroxyethyl)amino]ethyl]-9-hydroxy-2H-[1]benzopyrano[4,3,2-cd]indazol-5-yl]-2-[(2-hydroxyethyl)amino]acetamide, hydrochloride], for which the IC50 in experiment [1] was 1.7 µM. Also, the response vs control in vivo at 60 mg/kg in experiment [7] (Dose 60 mg/kg intraperitoneally once daily for five days) turned out to be 134%. Moreover, the response vs control in vivo at 120 mg/kg in experiment [7] (Dose 120 mg/kg intraperitoneally once daily for five days) was 142%. For the same compound, in experiment [7] (Dose 240 mg/kg intraperitoneally once daily for five days), the response vs control in vivo at 240 mg/kg was determined as 184%. The MIC in experiment [2] was 1000 mg/L; in experiment [3] it was more than 1000 mg/L; in experiment [4], 333 mg/L; in experiment [5], more than 1000 mg/L; in experiment [6] (setting [8]), 1000 mg/L.

In the case of `CCN(CC)CCn1nc2c3c(c(N)ccc31)Oc1ccc(O)cc1-2.Cl.Cl` [Example 12, 5-Amino-N,N-diethyl-9-hydroxy-2H-[1]benzopyrano[4,3,2-cd]indazole-2-ethanamine, dihydrochloride], the IC50 in experiment [1] was determined as 0.071 µM. Further, the response vs control in vivo at 6.25 mg/kg in experiment [7] came to 167%. Further, in experiment [7], the response vs control in vivo at 12.5 mg/kg turned out to be 201%. In addition, the response vs control in vivo at 25 mg/kg in experiment [7] came out at 192%. In addition, the MIC in experiment [2] is more than 1000 mg/L; in experiment [3], 111 mg/L; in experiment [4] it was 12.3 mg/L; in experiment [5], 12.3 mg/L; in experiment [6], 111 mg/L.

Turning to `Cl.Nc1ccc2c3c(nn2CCNCCO)-c2cc(O)ccc2Oc13` [Example 16, 5-Amino-2-[2-[(2-hydroxyethyl)amino]ethyl]-2H-[1]benzopyrano[4,3,2-cd]indazol-9-ol, hydrochloride], in experiment [1], the IC50 was found to be 0.12 µM. In experiment [7], the response vs control in vivo at 6.25 mg/kg was 165%. The response vs control in vivo at 12.5 mg/kg in experiment [7] came to 200%. Also, the response vs control in vivo at 25 mg/kg in experiment [7] stood at 260%. The MIC in experiment [2] is more than 1000 mg/L; in experiment [3] it was 37 mg/L; in experiment [4], 12.3 mg/L; in experiment [5], 37 mg/L; in experiment [6] (setting [8]), 4.1 mg/L.

For `CCN(CC)CCn1nc2c3c(c(NCCN)ccc31)Oc1ccc(OC)cc1-2` [Example 6, 1-[2-[2-(Diethylamino)ethyl]-9-methoxy-2H-[1]benzopyrano-[4,3,2-cd]ndazole-5-yl]-1,2-ethanediamine, trihydrobromide], the IC50 in experiment [1] is 1.1 µM. For the same compound, the response vs control in vivo at 12.5 mg/kg in experiment [7] was found to be 154%. Moreover, the response vs control in vivo at 25 mg/kg in experiment [7] worked out at 145%. In addition, the MIC in experiment [2] was 333 mg/L; in experiment [3], 111 mg/L; in experiment [4], 4.1 mg/L; in experiment [5] it was 12.3 mg/L; in experiment [6] it was 111 mg/L.

As to `OCCNCCNc1ccc2c3c(nn2CCNCCO)-c2cc(O)ccc2Oc13` [Example 18, 2-[2[(2-Hydroxyethyl)amino]ethyl]-5-[[2-[(2-hydroxyethyl)amino]ethyl]amino-2H [1]benzopyrano[4,3,2-cd]indazol-9-ol, hydrochloride], the IC50 in experiment [1] was 0.13 µM. The response vs control in vivo at 6.25 mg/kg in experiment [7] was 173%. The response vs control in vivo at 12.5 mg/kg in experiment [7] was found to be 236%. In addition, the response vs control in vivo at 25 mg/kg in experiment [7] came to 236%. Moreover, the MIC was more than 1000 mg/L in experiment [2]; 1000 mg/L in experiment [3]; 37 mg/L in experiment [4]; 333 mg/L in experiment [5]; 111 mg/L in experiment [6] (setting [8]).

In the case of `CCN(CC)CCn1nc2c3c(c([N+](=O)[O-])ccc31)Oc1cc(OC)ccc1-2` [Example 19, 5-Nitro-2-[2-(diethylamino)ethyl]-8-methoxy-2H [1]benzopyrano[4,3,2-cd]indazol, hydrochloride], in experiment [1], the IC50 was determined as 2.2 µM. Also, the MIC was 333 mg/L in experiment [2]; 37 mg/L in experiment [3]; less than 0.46 mg/L in experiment [4]; less than 0.46 mg/L in experiment [5]; less than 0.46 mg/L in experiment [6] (setting [8]).

For `O=[N+]([O-])c1ccc2c3c(nn2CCN2CCCC2)-c2cc(O)ccc2Oc13` [Example 10, 5-Nitro-2[2-(1-pyrrolidinyl)ethyl]-2H-[1]benzopyrano[4,3,2-cd]indazole-9-ol, methanesulfonate], the IC50 in experiment [1] is 0.0035 µM. For the same compound, the MIC in experiment [2] was 1000 mg/L; in experiment [3] it was 1.4 mg/L; in experiment [4], less than 0.46 mg/L; in experiment [5], less than 0.46 mg/L; in experiment [6] (setting [8]), more than 1000 mg/L.
